Experimental data as given in US20090325202A1, “Methods for Developing and Assessing Therapeutic Agents” (priority 2006, published 2009).

Legend:
p70S6K = experiment: IHC staining of phospho-p70S6K in resected xenograft tumor tissue; type: in vivo, human
Experimental: At the completion of the treatment course, xenografted tissues were harvested and fixed in formalin for 24 hrs. The fixed tissues were paraffin-embedded and cut in 0.5 micron sections onto positively-charged glass slides for immunohistochemical (IHC) labeling. Analysis was performed to determine the IHC pharmacodynamic effects of the drug in the targeted pathway. For IHC staining, slides were deparaffinized and rehydrated in graded concentrations of alcohol by standard techniques before antigen retrieval in citrate buffer pH 6.0 for 20 minutes. Next, the slides were cooled for 20 minutes before washing in 1× TBST (Dako Corp. Carpinteria, Calif.). All staining was performed using a DAKO Autostainer at room temperature. Slides were incubated in 3% H2O2 for 10 minutes, followed by the appropriate dilution of primary antibody for 60 minutes. Tris-HCl (0.2M, pH 7.5) (Quality Biological, Inc, Gaithersburg, Md.) was used as the antibody diluent solution. Dilutions of antibodies used were as follows: Total ERK1/2 (Cell Signaling Technology, Beverly, Mass.) 1:25, p-ERK1/2 (Thr202/Tyr204) (Cell Signaling Technology, Beverly, Mass.) 1:50, p70S6K (Santa Cruz Biotechnology) 1:50, and pp70S6K (Cell Signaling Technology, Beverly, Mass.) 1:50. […]

S6-RP = experiment: Ex vivo FNAB drug sensitivity assay, S6-RP phosphorylation by Western blot; type: cell-based, human
Experimental: Tumor cells were collected by FNAB from the xenograft animals before the start of treatment using a sterile 25G short needle. Tumor samples were immediately transferred into 10 ml sterile prewarmed complete RPMI-1640 culture medium containing 10% FBS, penicillin (200 μg/ml), and streptomycin (200 μg/ml). Cells were incubated with 0.04% trypan blue (Sigma) dissolved in PBS (9.1 mM Na2HPO4, 1.7 mM NaH2PO4, and 150 mM NaCl, pH 7.4). The viable (membrane-intact) and dead cells were then counted using Neubauer hemocytometer and the total viable cell count was used to calculate final working volumes. Approximately 25,000 viable tumor cells were seeded into each well of a 6-well polypropylene microplate. Cells were treated in duplicates with vehicle (control), erlotinib (5 μM) or temsirolimus (1 μM) in a humidified 5% CO2 incubator at 37° C. for 6 hours. No fibroblast and endothelial cell growth was observed. Following treatment, non-adherent and adherent cells (only a few, collected by scraping) were pooled together and centrifuged at 500×g for 5 min at 4° C. After washing with PBS, cells were lysed in 100 μL of ice-cold lysis buffer (50 mM Tris-HCl, 0.25M NaCl, 0.1% (v/v) Triton X-100, 1 mM EDTA, 50 mM NaF, and 0.1 mM Na3VO4, pH 7.4) containing protease and phosphatase inhibitors (Roche Molecular Biochemicals) and analyzed by Western blot.
Protein concentrations obtained from FNAB samples were quantified before each experiment. Protein extracts (15 μg) were electrophoresed on a 10% (w/v) SDS-polyacrylamide gel. After electrotransfer to Immobilon-P membranes (Millipore), membranes were blocked at room temperature using SuperBlock (Pierce) for one hour. The primary antibodies were diluted at 1:1000 in 1:10 dilution of SuperBlock solution and the membranes were incubated with primary antibodies overnight at 4° C. The antibodies tested were phospho-ERK1/2 (Cell signal #9101), phospho-S6 Ribosomal Protein (Cell Signaling Technology, Beverly, Mass.) and total ERK1/2 (Cell Signaling Technology, Beverly, Mass.) and total S6 Ribosomal Protein (Cell Signaling Technology, Beverly, Mass.). The next day, the membranes were washed and incubated for 1 h at room temperature with horseradish peroxidase (HRP)-conjugated secondary antibodies, rabbit IgG-HRP (Santa Cruz Biotechnology), or mouse IgG-HRP (Santa Cruz Biotechnology) at a final dilution of 1:3000. […]
To test if tumor cells obtained by FNAB can be used in the ex vivo assays to predict tumor response in vivo, 25,000 viable cancer cells, as determined by trypan blue dye exclusion, were treated with erlotinib or temsirolimus for six hours, after which signal pathway inhibition was analyzed by Western blot. Under these cell culture conditions no fibroblast and endothelial cell growth was detected (data not shown). […]

S6 ribosomal protein = experiment: In vivo tumor FNAB Western blot, S6 ribosomal protein phosphorylation (Example 5); conditions: tumor samples of treated animals compared to control
Experimental: Fine needle aspiration yielded up to 200 μg of total protein as determined using the BCA protein assay (Pierce) and bovine serum albumin as a standard. Protein extracts (15 μg) were added to a loading buffer boiled and electrophoresed on a 7 or 10% (w/v) polyacrylamide gel in the presence of SDS. Molecular weights of the immunoreactive proteins were estimated based upon the relative migration with colored molecular weight protein markers (Amersham Pharmacia Biotech). After electrotransfer to Immobilon-P membranes (Millipore), membranes were blocked at room temperature using SuperBlock (Pierce,#37516) for one hour. The primary antibodies were diluted at 1:1000 in 1:10 dilution of SuperBlock solution and the membranes were incubated with primary antibodies overnight at 4° C. Next day, the membranes were washed and incubated for 1 h at room temperature with horseradish peroxidase (HRP)-conjugated secondary antibodies, rabbit IgG-HRP (SC-2004), or mouse IgG-HRP (SC-2005) from Santa Cruz Biotechnology at a final dilution of 1:3000. After washing three times with Tris-buffered saline antibody binding was visualized using enhanced chemiluminescence (SuperSignal West Pico, Pierce) and autoradiography.
The expression levels and the phosphorylation status of EGFR, ERK1/2 and S6 ribosomal protein were determined on Western blot analysis.

CO[C@H]1C[C@@H]2CC[C@@H](C)[C@@](O)(O2)C(=O)C(=O)N2CCCC[C@H]2C(=O)O[C@H]([C@H](C)C[C@@H]2CC[C@@H](OC(=O)C(C)(CO)CO)[C@H](OC)C2)CC(=O)[C@H](C)/C=C(\C)[C@@H](O)[C@@H](OC)C(=O)[C@H](C)C[C@H](C)/C=C/C=C/C=C/1C [temsirolimus, Temsirolimus]
IHC staining for phosphorylated p70S6K (p70S6K; tumor A194, in vivo treated with temsirolimus): no effect
IHC staining for phosphorylated p70S6K (p70S6K; tumor A198, in vivo treated with temsirolimus): strongly decreased staining
S6-RP phosphorylation ex vivo (S6-RP; all tumors of the xenograft panel sensitive to therapy, temsirolimus 1 μM, 6 hours): blocked S6-RP phosphorylation
S6-RP phosphorylation ex vivo (S6-RP; cancer cells from pancreatic cancer patient 1, six hours): only partially decreased S6-RP phosphorylation
phosphorylation of S6-RP ex vivo (S6-RP; cells from tumor A198, temsirolimus 1 μM, 6 hours): inhibited phosphorylation of S6-RP
S6-RP phosphorylation ex vivo (S6-RP; tumor cells of pancreatic cancer patient 2 and 3, six hours): inhibited S6-RP phosphorylation
S6 ribosomal protein phosphorylation in vivo (S6 ribosomal protein): effectively blocked S6 ribosomal protein phosphorylation
